Measured values: patent US12662479B2 (Foghorn Therapeutics Inc., priority 2020, dated 2026)

Tests used:
HiBit-BRM fusion protein = biological target: T1, HiBit-BRM fusion protein (Homo sapiens, UniProt P51531); assay: HiBiT-BRM cell-based degradation assay (Nano-Glo HiBiT Lytic Detection, 24 h); details: HeLa cells expressing HiBiT-BRM; for DC50: read-out: BRM HiBit Degradation IC50; for BRM HiBit Degradation Maximum measured: top dose 30 μM
T1 construct: expressed in transfected cells
Description: (§1) Procedure: A stable HeLa cell line expressing HiBiT-BRM was generated. On day 0, 5000 cells were seeded in 40 μL of media into each well of 384-well cell culture plates. On day 1, cells were treated with 120 nL DMSO or 120 nL of 3-fold serially DMSO-diluted compounds (10 points in duplicate with 30 μM as final top dose). Subsequently plates were incubated for 24 h in a standard tissue culture incubator and equilibrated at room temperature for 15 minutes. Nano-Glo HiBiT Lytic Detection System (Promega N3050) reagent was freshly prepared and 20 ul was added to each well. Upon addition of this LgBit-containing reagent, the HiBiT and LgBiT proteins associate to form the luminescent NanoBiT luciferase. The plates were shaken for 10 minutes at room temperature and the bioluminescence read using an EnVision plate reader (PerkinElmer).
(§2) The degradation % was calculated using the following formula: % degradation=100%−100%×(LumSample−LumLC)/(LumHC−LumLC). DMSO treated cells are employed as High Control (HC) and 2 μM of a known BRM/BRG1 degrader standard treated cells are employed as Low Control (LC).

[1] = biological target: T2, HiBit-BRG1 fusion protein (Homo sapiens, UniProt P51532); assay: HiBiT-BRG1 cell-based degradation assay (Nano-Glo HiBiT Lytic Detection, 24 h); details: HeLa cells expressing HiBit-BRG1 and LgBit; for DC50: read-out: BRG1 HiBit Degradation IC50; for Dmax: HeLa, top dose 30 μM, read-out: BRG1 HiBit Degradation Maximum measured
T2 construct: expressed in transfected cells
Description: as §1, with “On day 1, cells were treated with 120 nL DMSO or 120 nL of 3-fold serially DMSO-diluted compounds (10 points in duplicate with 30 μM as final top dose). Subsequently plates were incubated for 24 h in a standard tissue culture incubator and equilibrated at room temperature for 15 minutes.” left out
For measurement of BRG1 degradation, a stable HeLa cell line expressing HiBit-BRG1 and LgBit was generated. The same protocol as above was then followed.
as §2

T1 sequence (P51531 whole entry, the tested form may be a part): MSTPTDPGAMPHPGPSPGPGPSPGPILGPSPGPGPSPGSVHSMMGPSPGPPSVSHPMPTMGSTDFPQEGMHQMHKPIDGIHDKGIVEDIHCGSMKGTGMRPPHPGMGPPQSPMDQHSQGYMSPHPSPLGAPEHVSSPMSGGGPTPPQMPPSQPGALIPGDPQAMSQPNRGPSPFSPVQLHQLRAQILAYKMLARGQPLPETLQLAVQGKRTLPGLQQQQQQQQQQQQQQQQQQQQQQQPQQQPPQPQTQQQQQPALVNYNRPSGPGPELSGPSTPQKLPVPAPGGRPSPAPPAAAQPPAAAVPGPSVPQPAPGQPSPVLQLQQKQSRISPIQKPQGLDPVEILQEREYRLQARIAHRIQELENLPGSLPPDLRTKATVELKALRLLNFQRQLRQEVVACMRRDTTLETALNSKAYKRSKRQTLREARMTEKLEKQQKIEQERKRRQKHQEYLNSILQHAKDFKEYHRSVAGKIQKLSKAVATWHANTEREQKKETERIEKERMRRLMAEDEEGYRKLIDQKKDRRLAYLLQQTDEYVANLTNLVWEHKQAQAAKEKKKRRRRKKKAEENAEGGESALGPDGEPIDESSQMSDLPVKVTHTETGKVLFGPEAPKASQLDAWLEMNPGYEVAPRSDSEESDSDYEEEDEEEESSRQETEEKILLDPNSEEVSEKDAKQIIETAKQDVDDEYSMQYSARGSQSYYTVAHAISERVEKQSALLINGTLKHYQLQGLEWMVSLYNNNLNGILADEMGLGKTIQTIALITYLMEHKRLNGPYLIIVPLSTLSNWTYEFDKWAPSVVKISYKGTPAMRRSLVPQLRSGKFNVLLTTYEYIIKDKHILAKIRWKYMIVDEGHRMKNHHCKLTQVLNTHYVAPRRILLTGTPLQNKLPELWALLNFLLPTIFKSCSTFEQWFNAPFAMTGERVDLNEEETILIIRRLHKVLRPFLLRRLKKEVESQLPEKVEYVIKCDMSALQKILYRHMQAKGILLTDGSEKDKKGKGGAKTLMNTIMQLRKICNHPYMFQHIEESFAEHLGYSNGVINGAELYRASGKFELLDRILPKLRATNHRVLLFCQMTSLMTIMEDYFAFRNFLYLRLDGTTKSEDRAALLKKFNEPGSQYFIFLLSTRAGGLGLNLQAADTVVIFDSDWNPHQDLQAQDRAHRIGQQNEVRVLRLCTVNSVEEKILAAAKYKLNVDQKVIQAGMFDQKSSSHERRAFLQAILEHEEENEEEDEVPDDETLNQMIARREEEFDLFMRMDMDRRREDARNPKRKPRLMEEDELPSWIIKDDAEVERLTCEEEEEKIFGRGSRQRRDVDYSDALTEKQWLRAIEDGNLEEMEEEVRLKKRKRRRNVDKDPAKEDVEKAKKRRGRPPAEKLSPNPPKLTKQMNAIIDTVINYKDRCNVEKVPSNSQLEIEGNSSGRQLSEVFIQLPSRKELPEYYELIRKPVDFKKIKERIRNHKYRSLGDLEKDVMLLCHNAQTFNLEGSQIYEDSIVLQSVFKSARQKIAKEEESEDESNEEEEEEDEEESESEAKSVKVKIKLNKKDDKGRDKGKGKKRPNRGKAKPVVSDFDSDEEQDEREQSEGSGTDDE
T2 sequence (P51532 whole entry, the tested form may be a part): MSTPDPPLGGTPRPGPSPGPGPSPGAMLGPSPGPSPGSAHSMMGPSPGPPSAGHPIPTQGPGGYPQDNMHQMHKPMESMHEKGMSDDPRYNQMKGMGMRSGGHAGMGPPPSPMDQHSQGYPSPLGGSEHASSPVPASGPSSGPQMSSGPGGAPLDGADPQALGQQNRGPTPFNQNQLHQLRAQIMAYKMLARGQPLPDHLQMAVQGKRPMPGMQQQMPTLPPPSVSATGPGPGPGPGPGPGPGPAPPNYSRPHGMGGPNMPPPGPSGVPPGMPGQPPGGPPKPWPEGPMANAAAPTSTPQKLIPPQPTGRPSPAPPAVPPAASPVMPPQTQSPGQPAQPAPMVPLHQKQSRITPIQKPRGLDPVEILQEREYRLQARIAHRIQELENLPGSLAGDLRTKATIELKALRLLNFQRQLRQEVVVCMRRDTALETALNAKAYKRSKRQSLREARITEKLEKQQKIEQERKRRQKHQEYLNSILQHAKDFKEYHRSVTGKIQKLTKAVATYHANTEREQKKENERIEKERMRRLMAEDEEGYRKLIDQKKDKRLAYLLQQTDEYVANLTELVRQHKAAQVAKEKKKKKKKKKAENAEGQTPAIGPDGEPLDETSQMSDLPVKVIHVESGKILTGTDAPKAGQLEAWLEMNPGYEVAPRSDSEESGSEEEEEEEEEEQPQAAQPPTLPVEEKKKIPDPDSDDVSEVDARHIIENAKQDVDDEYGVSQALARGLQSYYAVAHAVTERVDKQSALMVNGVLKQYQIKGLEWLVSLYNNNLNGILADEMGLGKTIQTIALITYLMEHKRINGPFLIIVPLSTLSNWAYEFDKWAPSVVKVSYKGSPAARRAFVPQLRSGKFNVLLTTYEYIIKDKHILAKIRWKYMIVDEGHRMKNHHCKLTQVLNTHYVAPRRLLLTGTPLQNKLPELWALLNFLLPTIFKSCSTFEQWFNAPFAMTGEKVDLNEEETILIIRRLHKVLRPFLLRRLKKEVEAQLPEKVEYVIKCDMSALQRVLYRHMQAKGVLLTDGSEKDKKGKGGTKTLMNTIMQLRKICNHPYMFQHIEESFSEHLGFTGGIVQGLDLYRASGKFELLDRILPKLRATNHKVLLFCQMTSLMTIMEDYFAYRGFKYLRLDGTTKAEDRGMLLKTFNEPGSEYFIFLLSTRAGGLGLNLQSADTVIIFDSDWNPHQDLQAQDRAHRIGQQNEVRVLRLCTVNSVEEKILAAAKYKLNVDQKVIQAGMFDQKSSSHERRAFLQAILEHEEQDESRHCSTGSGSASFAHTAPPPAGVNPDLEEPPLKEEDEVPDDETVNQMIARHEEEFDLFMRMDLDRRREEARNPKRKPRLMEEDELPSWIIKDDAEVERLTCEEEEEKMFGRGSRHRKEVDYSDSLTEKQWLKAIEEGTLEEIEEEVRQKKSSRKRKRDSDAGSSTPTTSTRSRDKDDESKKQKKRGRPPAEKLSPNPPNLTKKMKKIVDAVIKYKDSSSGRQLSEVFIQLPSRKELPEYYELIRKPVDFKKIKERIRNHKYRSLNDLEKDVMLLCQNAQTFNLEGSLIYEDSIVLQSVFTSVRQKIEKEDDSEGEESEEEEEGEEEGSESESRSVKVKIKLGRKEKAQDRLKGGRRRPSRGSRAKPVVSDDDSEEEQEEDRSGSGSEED

`Cc1c(C(=O)NCC(=O)Nc2nc(-c3cccc(-c4ccnc(N(C)CC(=O)NCCCCCCCCNC(=O)COc5cccc6c5C(=O)N(C5CCC(=O)NC5=O)C6=O)c4)c3)cs2)cn(S(C)(=O)=O)c1C` (stereo not shown) [Compound 41, N-[2-[[4-[3-[2-[[2-[8-[[2-[2-(2,6-dioxo-3-piperidyl)-1,3-dioxo-isoindolin-4-yl]oxyacetyl]amino]octylamino]-2-oxo-ethyl]-methyl-amino]-4-pyridyl]phenyl]thiazol-2-yl]amino]-2-oxo-ethyl]-4,5-dimethyl-1-methylsulfonyl-pyrrole-3-carboxamide] was tested, and the DC50 (HiBit-BRM fusion protein) was greater than 10 µM, the “BRM HiBit Degradation Maximum measured” value (HiBit-BRM fusion protein) was “C (‘C’ = Maximum degradation <50%)” and the DC50 [1] was greater than 10 µM. It also gave a Dmax [1] of less than 50%.

`CS(=O)(=O)n1ccc(C(=O)NCC(=O)Nc2nc(-c3cccc(-c4ccn(CC(=O)NCCOCCOCCNc5cccc6c5C(=O)N(C5CCC(=O)NC5=O)C6=O)n4)c3)cs2)c1` (stereo not shown) [Compound 3, N-[2-[[4-[3-[1-[2-[2-[2-[2-[[2-(2,6-dioxo-3-piperidyl)-1,3-dioxoisoindolin-4-yl]amino]ethoxy]ethoxy]ethylamino]-2-oxo-ethyl]pyrazol-3-yl]phenyl]thiazol-2-yl]amino]-2-oxo-ethyl]-1-methylsulfonyl-pyrrole-3-carboxamide] was tested, and the DC50 (HiBit-BRM fusion protein) was greater than 10 µM, the “BRM HiBit Degradation Maximum measured” value (HiBit-BRM fusion protein) was “C (‘C’ = Maximum degradation <50%)” and the DC50 [1] was greater than 10 µM. For the same compound, the Dmax [1] was less than 50%.

For `CS(=O)(=O)n1ccc(C(=O)NCC(=O)Nc2nc(-c3cccc(-c4ccnc(C5(C(=O)NCCCCCCNc6ccc7c(c6)CN(C6CCC(=O)NC6=O)C7=O)CC5)c4)c3)cs2)c1` (stereo not shown) [Compound 53, N-(6-[[2-(2,6-dioxopiperidin-3-yl)-1-oxo-3H-isoindol-5-yl]amino]hexyl)-1-[4-[3-(2-[2-[(1-methanesulfonylpyrrol-3-yl)formamido]acetamido]-1,3-thiazol-4-yl)phenyl]pyridin-2-yl]cyclopropane-1-carboxamide], the DC50 (HiBit-BRM fusion protein) was less than 0.1 µM, the “BRM HiBit Degradation Maximum measured” value (HiBit-BRM fusion protein) was “A (‘A’ = Maximum degradation >75%)” and the DC50 [1] was less than 0.1 µM. The Dmax [1] was greater than 75%.

For `CS(=O)(=O)n1ccc(C(=O)N[C@@H](CCOCCCC(=O)N2CC(COc3ccc4c(c3)C(=O)N(C3CCC(=O)NC3=O)C4=O)C2)C(=O)Nc2nc(-c3ccccc3)cs2)c1` (stereo partly drawn) [Compound 260, (2S)-4-[4-[3-([[2-(2,6-dioxopiperidin-3-yl)-1,3-dioxoisoindol-5-yl]oxy]methyl)azetidin-1-yl]-4-oxobutoxy]-2-[(1-methanesulfonylpyrrol-3-yl)formamido]-N-(4-phenyl-1,3-thiazol-2-yl)butanamide], the DC50 (HiBit-BRM fusion protein) was greater than 10 µM, the “BRM HiBit Degradation Maximum measured” value (HiBit-BRM fusion protein) was “C (‘C’ = Maximum degradation <50%)” and the DC50 [1] was greater than 10 µM. It also gave a Dmax [1] of less than 50%.

For `Cc1ncsc1-c1ccc(CNC(=O)[C@@H]2C[C@@H](O)CN2C(=O)[C@@H](NC(=O)CCC(=O)NCc2cccc(-c3cccc(-c4csc(NC(=O)CNC(=O)c5ccn(S(C)(=O)=O)c5)n4)c3)c2)C(C)(C)C)cc1` [Compound 63, N1-((S)-1-((2S,4R)-4-hydroxy-2-((4-(4-methylthiazol-5-yl)benzyl)carbamoyl)pyrrolidin-1-yl)-3,3-dimethyl-1-oxobutan-2-yl)-N4-((3′-(2-(2-(1-(methylsulfonyl)-1H-pyrrole-3-carboxamido)acetamido)thiazol-4-yl)-[1,1′-biphenyl]-3-yl)methyl)succinamide], the DC50 (HiBit-BRM fusion protein) was greater than 10 µM, the “BRM HiBit Degradation Maximum measured” value (HiBit-BRM fusion protein) was “C (‘C’ = Maximum degradation <50%)” and the DC50 [1] was greater than 10 µM. The Dmax [1] was less than 50%.

`CN(CC(=O)NCCCCCCCCNC(=O)COc1cccc2c1C(=O)N(C1CCC(=O)NC1=O)C2=O)c1cc(-c2cccc(-c3csc(NC(=O)CNC(=O)c4ccn(S(C)(=O)=O)c4)n3)c2)ccn1` (stereo not shown) [Compound 15, N-(2-((4-(3-(2-((2-((8-(2-((2-(2,6-dioxopiperidin-3-yl)-1,3-dioxoisoindolin-4-yl)oxy)acetamido)octyl)amino)-2-oxoethyl)(methyl)amino)pyridin-4-yl)phenyl)thiazol-2-yl)amino)-2-oxoethyl)-1-(methylsulfonyl)-1H-pyrrole-3-carboxamide] was tested, and the DC50 (HiBit-BRM fusion protein) was greater than 10 µM, the “BRM HiBit Degradation Maximum measured” value (HiBit-BRM fusion protein) was “C (‘C’ = Maximum degradation <50%)” and the DC50 [1] was greater than 10 µM. It also gave a Dmax [1] of less than 50%.

With `CN(CC(=O)NCCOCCOCCNc1cccc2c1C(=O)N(C1CCC(=O)NC1=O)C2=O)c1cc(-c2cccc(-c3csc(NC(=O)CNC(=O)c4ccn(S(C)(=O)=O)c4)n3)c2)ccn1` (stereo not shown) [Compound 9, N-(2-((4-(3-(2-((2-((2-(2-(2-((2-(2,6-dioxopiperidin-3-yl)-1,3-dioxoisoindolin-4-yl)amino)ethoxy)ethoxy)ethyl)amino)-2-oxoethyl)(methyl)amino)pyridin-4-yl)phenyl)thiazol-2-yl)amino)-2-oxoethyl)-1-(methylsulfonyl)-1H-pyrrole-3-carboxamide] the DC50 (HiBit-BRM fusion protein) was greater than 10 µM, the “BRM HiBit Degradation Maximum measured” value (HiBit-BRM fusion protein) was “C (‘C’ = Maximum degradation <50%)” and the DC50 [1] was greater than 10 µM. For the same compound, the Dmax [1] was less than 50%.

With `CN(CC(=O)NCCCCS(=O)(=O)CCCNc1cccc2c1C(=O)N(C1CCC(=O)NC1=O)C2=O)c1cc(-c2cccc(-c3csc(NC(=O)CNC(=O)c4ccn(S(C)(=O)=O)c4)n3)c2)ccn1` (stereo not shown) [Compound 29] the DC50 (HiBit-BRM fusion protein) was greater than 10 µM, the “BRM HiBit Degradation Maximum measured” value (HiBit-BRM fusion protein) was “C (‘C’ = Maximum degradation <50%)” and the DC50 [1] was greater than 10 µM. For the same compound, the Dmax [1] was less than 50%.

`CN(CC(=O)NCCOCCOCCNc1ccc2c(c1)C(=O)N(C1CCC(=O)NC1=O)C2=O)c1cc(-c2cccc(-c3csc(NC(=O)CNC(=O)c4ccn(S(C)(=O)=O)c4)n3)c2)ccn1` (stereo not shown) [Compound 93] was tested, and the DC50 (HiBit-BRM fusion protein) was greater than 10 µM, the “BRM HiBit Degradation Maximum measured” value (HiBit-BRM fusion protein) was “C (‘C’ = Maximum degradation <50%)” and the DC50 [1] was greater than 10 µM. For the same compound, the Dmax [1] was less than 50%.

In the case of `Cc1ncsc1-c1ccc(CNC(=O)[C@@H]2C[C@@H](O)CN2C(=O)[C@@H](NC(=O)N2CC(C(=O)NCc3cccc(-c4cccc(-c5csc(NC(=O)CNC(=O)c6ccn(S(C)(=O)=O)c6)n5)c4)c3)C2)C(C)(C)C)cc1` [Compound 160, N1-[(2S)-1-[(2S,4R)-4-hydroxy-2-([[4-(4-methyl-1,3-thiazol-5-yl)phenyl]methyl]carbamoyl)pyrrolidin-1-yl]-3,3-dimethyl-1-oxobutan-2-yl]-N3-[[3-(2-[2-[(1-methanesulfonylpyrrol-3-yl)formamido]acetamido]-1,3-thiazol-4-yl)-[1,1-biphenyl]-3-yl]methyl]azetidine-1,3-dicarboxamide], the DC50 (HiBit-BRM fusion protein) is reported as greater than 10 µM, the “BRM HiBit Degradation Maximum measured” value (HiBit-BRM fusion protein) is reported as “C (‘C’ = Maximum degradation <50%)” and the DC50 [1] is reported as greater than 10 µM. For the same compound, the Dmax [1] was less than 50%.

With `Cc1ncsc1-c1ccc(CNC(=O)[C@@H]2C[C@@H](O)CN2C(=O)[C@@H](NC(=O)CCCCCCCCCCCCC(=O)NCc2ccc(COC[C@H](NC(=O)c3ccn(S(C)(=O)=O)c3)C(=O)Nc3nc(-c4ccccc4)cs3)cc2)C(C)(C)C)cc1` [Compound 211, N-[(2S)-1-[(2S,4R)-4-hydroxy-2-([[4-(4-methyl-1,3-thiazol-5-yl)phenyl]methyl]carbamoyl)pyrrolidin-1-yl]-3,3-dimethyl-1-oxobutan-2-yl]-N′-[(4-[[(2S)-2-[(1-methanesulfonylpyrrol-3-yl)formamido]-2-[(4-phenyl-1,3-thiazol-2-yl)carbamoyl]ethoxy]methyl]phenyl)methyl]tetradecanediamide] the DC50 (HiBit-BRM fusion protein) was greater than 10 µM, the “BRM HiBit Degradation Maximum measured” value (HiBit-BRM fusion protein) was “C (‘C’ = Maximum degradation <50%)” and the DC50 [1] was greater than 10 µM. For the same compound, the Dmax [1] was less than 50%.

For `CS(=O)(=O)n1ccc(C(=O)N[C@@H](CCOCCCC(=O)NCCOCCOCCOCCNC(=O)COc2cccc3c2C(=O)N(C2CCC(=O)NC2=O)C3=O)C(=O)Nc2nc(-c3ccccc3)cs2)c1` (stereo partly drawn) [Compound 258, (2S)-4-(3-[[2-(2-[2-[2-(2-[[2-(2,6-dioxopiperidin-3-yl)-1,3-dioxoisoindol-4-yl]oxy]acetamido)ethoxy]ethoxy]ethoxy)ethyl]carbamoyl]propoxy)-2-[(1-methanesulfonylpyrrol-3-yl)formamido]-N-(4-phenyl-1,3-thiazol-2-yl)butanamide], the DC50 (HiBit-BRM fusion protein) was greater than 10 µM, the “BRM HiBit Degradation Maximum measured” value (HiBit-BRM fusion protein) was “C (‘C’ = Maximum degradation <50%)” and the DC50 [1] was greater than 10 µM. For the same compound, the Dmax [1] was less than 50%.

`Cc1ncsc1-c1ccc(CNC(=O)[C@@H]2C[C@@H](O)CN2C(=O)[C@@H](NC(=O)CCCCCCCCCCCC(=O)NCc2cccc(-c3cccc(-c4csc(NC(=O)CNC(=O)c5ccn(S(C)(=O)=O)c5)n4)c3)c2)C(C)(C)C)cc1` [Compound 114] was tested, and the Dmax [1] was greater than 75%.
